From US10647990B2, “Rice high temperature resistance gene and use in crop breeding resistance to high temperature thereof” (SHANGHAI INSTITUTES FOR BIOLOGICAL SCIENCES, CHINESE …, priority 2014, dated 2020) come the findings set out here.

“Also recorded” adds a separate entry of the source. Peptide text beside a SMILES is read from it. * marks the point of attachment. Cbz = O=C(OCc1ccccc1)*

The assay relates to rice. Put plainly: MG132 treatment of rice during high temperature treatment (blocking the 26S proteasome degradation pathway). Particulars: under high temperature stress; MG132 0 μM, 50 μM, 100 μM; FIG. 6G, H. Format: in vivo, Oryza sativa.

Take `CC(C)C[C@@H](C=O)NC(=O)[C@H](CC(C)C)NC(=O)[C@H](CC(C)C)NC(=O)OCc1ccccc1` [MG132] (Cbz-Leu-Leu-Leu-aldehyde): the “high temperature resistance of rice” value is given as “high temperature sensitive phenotype; also recorded: can reduce the high temperature resistance of rice”.
